Measured values taken from PubChem BioAssay (NCI).
Several values for one entry are separate records, joined by “and”; a condition that tells them apart may be missing. Equal entries are not always repeated.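 Five concentrations, 48 hours, 96-well plates. Here, GI50 denotes the concentration required for 50% inhibition of growth. At the TGI there is no net growth.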

Tests used:
Experiment in all cases: NCI tumour cell line growth inhibition, 48 h
[1] = tested on: 786-0 renal
[2] = tested on: A498 renal
[3] = tested on: A549 NSCLC
[4] = tested on: ACHN renal
[5] = tested on: CAKI-1 renal
[6] = tested on: CCRF-CEM leukemia
[7] = tested on: COLO 205 colon
[8] = tested on: DLD-1 colon
[9] = tested on: DMS 114 small cell lung
[10] = tested on: DMS 273 small cell lung
[11] = tested on: EKVX NSCLC
[12] = tested on: HCC-2998 colon
[13] = tested on: HCT-116 colon
[14] = tested on: HCT-15 colon
[15] = tested on: HL-60(TB) leukemia
[16] = tested on: HOP-18 NSCLC
[17] = tested on: HOP-62 NSCLC
[18] = tested on: HOP-92 NSCLC
[19] = tested on: HT29 colon
[20] = tested on: IGROV1 ovarian
[21] = tested on: K-562 leukemia
[22] = tested on: KM12 colon
[23] = tested on: KM20L2 colon
[24] = tested on: LOX IMVI melanoma
[25] = tested on: LXFL 529 NSCLC
[26] = tested on: M14 melanoma
[27] = tested on: M19-MEL melanoma
[28] = tested on: MALME-3M melanoma
[29] = tested on: MOLT-4 leukemia
[30] = tested on: NCI-H226 lung
[31] = tested on: NCI-H23 lung
[32] = tested on: NCI-H460 lung
[33] = tested on: NCI-H522 lung
[34] = tested on: OVCAR-3 ovarian
[35] = tested on: OVCAR-4 ovarian
[36] = tested on: OVCAR-5 ovarian
[37] = tested on: OVCAR-8 ovarian
[38] = tested on: RPMI-8226 leukemia
[39] = tested on: RXF 393 renal
[40] = tested on: RXF-631 renal
[41] = tested on: SF-268 CNS
[42] = tested on: SF-295 CNS
[43] = tested on: SF-539 CNS
[44] = tested on: SK-MEL-2 melanoma
[45] = tested on: SK-MEL-28 melanoma
[46] = tested on: SK-MEL-5 melanoma
[47] = tested on: SK-OV-3 ovarian
[48] = tested on: SN12C renal
[49] = tested on: SNB-19 CNS
[50] = tested on: SNB-75 CNS
[51] = tested on: SNB-78 CNS
[52] = tested on: SR leukemia
[53] = tested on: SW-620 colon
[54] = tested on: TK-10 renal
[55] = tested on: U251 CNS
[56] = tested on: UACC-257 melanoma
[57] = tested on: UACC-62 melanoma
[58] = tested on: UO-31 renal
[59] = tested on: XF 498 CNS
[60] = tested on: BT-549 breast
[61] = tested on: DU-145 prostate
[62] = tested on: MCF7 breast
[63] = tested on: MDA-MB-231 breast
[64] = tested on: MDA-MB-435
[65] = tested on: MDA-N
[66] = tested on: NCI/ADR-RES ovarian
[67] = tested on: P388 leukemia
[68] = tested on: P388/ADR leukemia
[69] = tested on: PC-3 prostate

CC(=O)OC1COC(N2CCc3ccccc32)C(OC(C)=O)C1OC(C)=O (configuration not stated)
TGI [1]: > 100 µM
TGI [2]: > 100 µM
TGI [3]: > 100 µM
TGI [4]: > 100 µM
TGI [5]: > 100 µM
TGI [6]: > 100 µM
TGI [7]: > 100 µM
TGI [8]: > 100 µM
TGI [9]: > 100 µM
TGI [10]: > 100 µM
TGI [11]: > 100 µM
TGI [12]: > 100 µM
TGI [13]: > 100 µM
TGI [14]: > 100 µM
GI50 [15]: 89.3 µM and 28.2 µM
TGI [15]: > 100 µM
TGI [16]: > 100 µM
TGI [17]: > 100 µM
GI50 [18]: > 100 µM
TGI [18]: > 100 µM
TGI [19]: > 100 µM
TGI [20]: > 100 µM
TGI [21]: > 100 µM
TGI [22]: > 100 µM
TGI [23]: > 100 µM
TGI [24]: > 100 µM
TGI [25]: > 100 µM
TGI [26]: > 100 µM
TGI [27]: > 100 µM
TGI [28]: > 100 µM
TGI [29]: > 100 µM
TGI [30]: > 100 µM
TGI [31]: > 100 µM
TGI [32]: > 100 µM
TGI [33]: > 100 µM
TGI [34]: > 100 µM
TGI [35]: > 100 µM
TGI [36]: > 100 µM
TGI [37]: > 100 µM
TGI [38]: > 100 µM
TGI [39]: > 100 µM
TGI [40]: > 100 µM
TGI [41]: > 100 µM
TGI [42]: > 100 µM
TGI [43]: > 100 µM
TGI [44]: > 100 µM
TGI [45]: > 100 µM
TGI [46]: > 100 µM
TGI [47]: > 100 µM
TGI [48]: > 100 µM
TGI [49]: > 100 µM
GI50 [50]: > 100 µM
TGI [50]: > 100 µM
TGI [51]: > 100 µM
TGI [52]: > 100 µM
TGI [53]: > 100 µM
TGI [54]: > 100 µM
TGI [55]: > 100 µM
TGI [56]: > 100 µM
TGI [57]: > 100 µM
TGI [58]: > 100 µM
TGI [59]: > 100 µM

COc1cc2c(cc1OC)C1Cc3sccc3CN1CC2 (configuration not stated)
TGI [3]: > 100 µM
TGI [4]: > 100 µM
TGI [5]: > 100 µM
TGI [6]: > 100 µM
TGI [8]: > 100 µM
TGI [9]: > 100 µM
TGI [10]: > 100 µM
TGI [11]: > 100 µM
TGI [12]: > 100 µM
TGI [13]: > 100 µM
TGI [14]: > 100 µM
TGI [15]: > 100 µM
TGI [16]: > 100 µM
TGI [17]: > 100 µM
TGI [18]: > 100 µM
TGI [19]: > 100 µM
TGI [20]: > 100 µM
TGI [21]: > 100 µM
TGI [23]: > 100 µM
TGI [24]: > 100 µM
TGI [25]: > 100 µM
TGI [26]: > 100 µM
TGI [27]: > 100 µM
TGI [28]: > 100 µM
TGI [29]: > 100 µM
TGI [30]: > 100 µM
TGI [31]: > 100 µM
TGI [32]: > 100 µM
TGI [33]: > 100 µM
TGI [34]: > 100 µM
TGI [35]: > 100 µM
TGI [36]: > 100 µM
TGI [37]: > 100 µM
TGI [38]: > 100 µM
TGI [39]: > 100 µM
TGI [40]: > 100 µM
TGI [41]: > 100 µM
TGI [42]: > 100 µM
TGI [43]: > 100 µM
TGI [44]: > 100 µM
TGI [46]: > 100 µM
TGI [47]: > 100 µM
TGI [48]: > 100 µM
TGI [49]: > 100 µM
TGI [50]: > 100 µM
TGI [51]: > 100 µM
TGI [52]: > 100 µM
TGI [53]: > 100 µM
TGI [54]: > 100 µM
TGI [55]: > 100 µM
TGI [56]: > 100 µM
TGI [57]: > 100 µM
TGI [58]: > 100 µM
TGI [59]: > 100 µM

COc1ccc2nc3ccccc3c(NCCN(C)CCCl)c2c1
TGI [1]: 1.89 µM
TGI [2]: 3.02 µM
TGI [3]: 4.88 µM
TGI [4]: 1.91 µM
TGI [60]: 3.24 µM
TGI [5]: 2.2 µM
TGI [6]: 3.67 µM
TGI [7]: 1.84 µM
TGI [8]: 3.45 µM
TGI [9]: 2.31 µM
TGI [10]: 2.35 µM
TGI [61]: 4.47 µM
TGI [11]: 4.37 µM
TGI [12]: 2.15 µM
TGI [13]: 2.63 µM
TGI [14]: 7.56 µM
TGI [15]: 1.73 µM
TGI [16]: 6.29 µM
TGI [17]: 3.7 µM
TGI [18]: 3.85 µM
TGI [19]: 4.95 µM
TGI [20]: 2.58 µM
TGI [21]: 9.24 µM
TGI [22]: 4.13 µM
TGI [23]: 2.88 µM
TGI [24]: 1.77 µM
TGI [25]: 1.85 µM
TGI [26]: 2.29 µM
TGI [27]: 2.48 µM
TGI [28]: 1.5 µM
TGI [62]: 4.18 µM
TGI [63]: 2.98 µM
TGI [64]: 2.15 µM
TGI [65]: 2.4 µM
TGI [29]: 0.497 µM
TGI [30]: 2.26 µM
TGI [31]: 1.88 µM
TGI [32]: 2.49 µM
TGI [33]: 1.51 µM
TGI [66]: 3.79 µM
TGI [34]: 3.29 µM
TGI [35]: 2.8 µM
TGI [36]: 3.84 µM
TGI [37]: 2.76 µM
TGI [67]: 1.51 µM
TGI [68]: 8.73 µM
TGI [69]: 2.24 µM
TGI [38]: 1.53 µM
TGI [39]: 1.86 µM
TGI [41]: 3.85 µM
TGI [42]: 4.17 µM
TGI [43]: 1.85 µM
TGI [44]: 2.41 µM
TGI [45]: 3.97 µM
TGI [46]: 2.03 µM
TGI [47]: 3.5 µM
TGI [48]: 2.86 µM
TGI [49]: 7.44 µM
TGI [50]: 4.07 µM
TGI [51]: 4.76 µM
TGI [52]: 2.31 µM
TGI [53]: 1.91 µM
TGI [54]: 15.7 µM
TGI [55]: 3.16 µM
TGI [56]: 9.46 µM
TGI [57]: 2.03 µM
TGI [58]: 3.38 µM
TGI [59]: 2.3 µM

Cc1ccc(NC(=O)OCC(COc2ccc(Cl)cc2)OC(=O)Nc2ccc(C)cc2)cc1 (configuration not stated)
TGI [2]: 60.4 µM
TGI [3]: > 100 µM
TGI [4]: > 100 µM
TGI [5]: 57 µM
TGI [6]: > 100 µM
TGI [7]: > 100 µM
TGI [8]: > 100 µM
TGI [9]: 98.8 µM
TGI [10]: 66.4 µM
TGI [11]: > 100 µM
TGI [12]: > 100 µM
TGI [13]: > 100 µM
TGI [14]: > 100 µM
TGI [15]: 27.9 µM
TGI [16]: > 100 µM
TGI [17]: > 100 µM
TGI [18]: 31 µM
TGI [19]: 71.7 µM
TGI [20]: > 100 µM
TGI [21]: 60.4 µM
TGI [22]: > 100 µM
TGI [23]: > 100 µM
TGI [24]: 96.9 µM
TGI [25]: > 100 µM
TGI [26]: 63.8 µM
TGI [27]: > 100 µM
TGI [28]: 54.2 µM
TGI [29]: > 100 µM
TGI [30]: 67.9 µM
TGI [31]: > 100 µM
TGI [32]: > 100 µM
TGI [33]: > 100 µM
TGI [34]: 61.8 µM
TGI [35]: 73.6 µM
TGI [36]: > 100 µM
TGI [37]: > 100 µM
TGI [38]: > 100 µM
TGI [39]: 43.1 µM
TGI [40]: 24.9 µM
TGI [41]: > 100 µM
TGI [42]: 80.6 µM
TGI [43]: 52.3 µM
TGI [44]: 58.4 µM
TGI [45]: > 100 µM
TGI [46]: > 100 µM
TGI [47]: > 100 µM
TGI [48]: > 100 µM
TGI [49]: 57.3 µM
TGI [50]: 36.9 µM
TGI [51]: 82.5 µM
TGI [52]: > 100 µM
TGI [53]: > 100 µM
TGI [54]: 96.9 µM
TGI [55]: > 100 µM
TGI [56]: > 100 µM
TGI [57]: > 100 µM
TGI [58]: > 100 µM
TGI [59]: 86.7 µM
